Legend:
Assay in all cases: relative viability (nuclei count vs DMSO), 5 days (fraction); higher = more cells survive
Ispinesib + Luminespib = compound: Cc1ccc(C(=O)N(CCCN)[C@@H](c2nc3cc(Cl)ccc3c(=O)n2Cc2ccccc2)C(C)C)cc1 [Ispinesib] + CCNC(=O)c1noc(-c2cc(C(C)C)c(O)cc2O)c1-c1ccc(CN2CCOCC2)cc1 [Luminespib] (partner 0.01 µM)
Procedure, shortened: (§1)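 Values are medians from duplicate plates. Each reflects relative viability, defined as the nuclei count of treated wells over that of vehicle wells. Lung cancer cell lines in 1536-well plates were pin-tool dosed one day after seeding with one drug alone or with a fixed anchor-drug dose plus five library-drug doses (not always all listed) in √10 steps, then fixed, stained and imaged at 4× after 5 days.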

Linsitinib + Palbociclib = compound: C[C@]1(O)C[C@@H](c2nc(-c3ccc4ccc(-c5ccccc5)nc4c3)c3c(N)nccn32)C1 [Linsitinib] + CC(=O)c1c(C)c2cnc(Nc3ccc(N4CCNCC4)cn3)nc2n(C2CCCC2)c1=O [Palbociclib] (partner 0.5 µM)
Procedure, shortened: as §1

Linsitinib + Pemetrexed = compound: C[C@]1(O)C[C@@H](c2nc(-c3ccc4ccc(-c5ccccc5)nc4c3)c3c(N)nccn32)C1 [Linsitinib] + Nc1nc2[nH]cc(CCc3ccc(C(=O)N[C@@H](CCC(=O)O)C(=O)O)cc3)c2c(=O)[nH]1 [Pemetrexed] (partner 0.2 µM)
Procedure, shortened: as §1

Linsitinib + Trametinib = compound: C[C@]1(O)C[C@@H](c2nc(-c3ccc4ccc(-c5ccccc5)nc4c3)c3c(N)nccn32)C1 [Linsitinib] + CC(=O)Nc1cccc(-n2c(=O)n(C3CC3)c(=O)c3c(Nc4ccc(I)cc4F)n(C)c(=O)c(C)c32)c1 [Trametinib] (partner 0.02 µM)
Procedure, shortened: as §1

| Cell Line | relative viability (Ispinesib + Luminespib; first compound 0.001 µM) | relative viability (Ispinesib + Luminespib; first compound 0.003162 µM) | relative viability (Ispinesib + Luminespib; first compound 0.01 µM) | relative viability (Ispinesib + Luminespib; first compound 0.03162 µM) | relative viability (Ispinesib + Luminespib; first compound 0.1 µM) | relative viability (Linsitinib + Palbociclib; first compound 0.01 µM) | relative viability (Linsitinib + Palbociclib; first compound 0.03162 µM) | relative viability (Linsitinib + Palbociclib; first compound 0.1 µM) | relative viability (Linsitinib + Palbociclib; first compound 0.3162 µM) | relative viability (Linsitinib + Palbociclib; first compound 1 µM) | relative viability (Linsitinib + Pemetrexed; first compound 0.01 µM) | relative viability (Linsitinib + Pemetrexed; first compound 0.03162 µM) | relative viability (Linsitinib + Pemetrexed; first compound 0.1 µM) | relative viability (Linsitinib + Pemetrexed; first compound 0.3162 µM) | relative viability (Linsitinib + Pemetrexed; first compound 1 µM) | relative viability (Linsitinib + Trametinib; first compound 0.01 µM) | relative viability (Linsitinib + Trametinib; first compound 0.03162 µM) | relative viability (Linsitinib + Trametinib; first compound 0.1 µM) | relative viability (Linsitinib + Trametinib; first compound 0.3162 µM) | relative viability (Linsitinib + Trametinib; first compound 1 µM) |
| --- | --- | --- | --- | --- | --- | --- | --- | --- | --- | --- | --- | --- | --- | --- | --- | --- | --- | --- | --- | --- |
| NCI-H441 | 0.346 | 0.404 | 0.448 | 0.389 | 0.292 | 0.197 | 0.226 | 0.199 | 0.138 | 0.119 | 0.246 | 0.284 | 0.259 | 0.234 | 0.291 | 0.537 | 0.44 | 0.339 | 0.215 | 0.231 |
| NCI-H520 | 0.24 | 0.17 | 0.207 | 0.206 | 0.204 | 0.175 | 0.212 | 0.244 | – | 0.215 | 0.623 | 0.377 | 0.762 | – | 0.598 | 0.618 | 0.64 | 0.641 | – | 0.712 |
| CAL-12T | 0.318 | 0.394 | 0.688 | 0.379 | 0.236 | 0.429 | 0.388 | 0.412 | 0.321 | 0.424 | 1.25 | 0.946 | 1.23 | 1.14 | 1.13 | 0.347 | 0.364 | 0.292 | 0.28 | 0.318 |
| HCC-827 | 0.69 | 0.536 | 0.876 | 0.482 | 0.529 | 0.408 | 0.572 | 0.468 | – | 0.529 | 0.149 | 0.24 | 0.32 | – | 0.262 | 0.526 | 0.616 | 0.522 | – | 0.602 |
| LC-2-ad | 1.08 | 1.3 | 1.05 | 0.915 | 0.396 | 0.412 | 0.392 | 0.483 | 0.433 | 0.423 | 0.272 | 0.264 | 0.256 | 0.266 | 0.259 | 0.906 | 0.718 | 0.942 | 0.864 | 0.827 |
| NCI-H2170 | 0.74 | 0.53 | 0.964 | 0.351 | 0.448 | 0.386 | 0.4 | 0.381 | – | 0.412 | 0.255 | 0.241 | 0.251 | – | 0.276 | 0.948 | 0.906 | 0.849 | – | 0.89 |
| SW 1573 | 0.234 | 0.198 | 0.13 | 0.151 | 0.148 | 0.428 | 0.358 | 0.333 | 0.259 | 0.33 | 0.912 | 0.676 | 0.921 | 0.828 | 0.732 | 0.671 | 0.576 | 0.646 | 0.385 | 0.412 |
| SK-MES-1 | 0.954 | 0.691 | 0.966 | 0.203 | 0.221 | 0.325 | 0.297 | 0.323 | 0.296 | 0.324 | 0.991 | 0.795 | 0.958 | 0.784 | 0.753 | 0.516 | 0.484 | 0.556 | 0.503 | 0.521 |
| SW 900 | 0.206 | 0.171 | 0.164 | 0.183 | 0.19 | 0.506 | 0.544 | 0.534 | 0.476 | 0.505 | 0.484 | 0.44 | 0.478 | 0.438 | 0.405 | 0.741 | 0.986 | 0.762 | 0.72 | 0.674 |
| NCI-H1793 | 0.198 | 0.169 | 0.749 | 0.144 | 0.162 | 0.288 | 0.342 | 0.283 | 0.26 | 0.26 | 0.834 | 0.819 | 0.842 | 0.584 | 0.63 | 0.414 | 0.479 | 0.457 | 0.36 | 0.395 |
| HCC-366 | – | – | – | – | – | 0.441 | 0.394 | 0.359 | 0.303 | 0.328 | 0.138 | 0.0729 | 0.156 | 0.119 | 0.127 | 0.369 | 0.381 | 0.402 | 0.317 | 0.202 |
| NCI-H1648 | – | – | – | – | – | 0.238 | 0.304 | 0.252 | 0.279 | 0.212 | 0.95 | 0.553 | 0.658 | 0.592 | 0.826 | 0.517 | 0.482 | 0.53 | 0.388 | 0.385 |
| HCC-78 | – | – | – | – | – | 0.45 | 0.539 | 0.458 | 0.525 | 0.501 | – | 0.897 | 0.913 | 0.882 | 0.925 | – | 0.913 | 0.698 | 0.736 | 0.578 |
| NCI-H727 | 0.244 | 0.284 | 0.349 | 0.0037 | 0.308 | 0.708 | 0.719 | 0.63 | 0.553 | 0.554 | – | – | – | – | – | 0.349 | 0.403 | 0.317 | 0.358 | 0.29 |
| NCI-H1623 | 0.638 | 0.487 | 0.578 | 0.526 | 0.455 | – | – | – | – | – | – | – | – | – | – | – | – | – | – | – |
| NCI-H596 | 1.01 | 0.954 | 1.07 | 1.06 | 0.609 | – | – | – | – | – | 0.552 | 0.428 | 0.497 | 0.447 | 0.46 | 0.705 | 0.715 | 0.74 | 0.827 | 0.732 |
| NCI-H1563 | 0.506 | 0.462 | 0.523 | 0.523 | 0.55 | – | – | – | – | – | 0.791 | 0.883 | 0.718 | 1.09 | 0.752 | – | – | – | – | – |
| ABC-1 | – | 0.598 | 0.613 | 0.369 | 0.469 | 0.793 | 0.537 | 0.627 | 0.428 | 0.425 | – | – | – | – | – | – | – | – | – | – |

Source: the supplement of paper PMC10307832
